“And” between values parts separate entries of the source, which are not always exact repeats. Identical values can stand only once.
What was measured:
[1] = tested on: human CD3+ T cells; assay: Mixed lymphocyte reaction: proliferation of PHA-stimulated T cells; format: cell-based; details: PHA 1 μg/mL; 5 μM; in 4 days
Method: Briefly, human peripheral blood mononuclear cells PBMCs were isolated from human buffy coat using Ficoll-Paque. […] Results are presented as the mean±S.D., n=6.
(§1) PBMCs were isolated using Ficoll Paque. T cells were isolated from PBMCs using Dynabeads for. T cells were stimulated with PHA (1 μg/ml) for 24 h alone or in the presence of TNP (5 μM) or JP-3-110 (5 μM) for additional 4 days. The total number of PBMCs was measured using T4 Automatic Cell Counter (Nexcelom, Lawrence, Mass.). The extent of T cell activation was determined by measuring the level of IL-2, IL-2sRa, TNFα and IFN-γ in the medium using ELISA at indicated time.
Mixed lymphocytes reaction was used to determine the immunosuppressive effects of MPA and JP-3-110. T cells were purified using dynabeads from peripheral blood mononuclear cells (PBMCs), which were initially isolated from human buffy coat (FIG. 8A). […] The levels of IL-2, IL-2sRa, TNFα and IFNγ were detected by ELISA to study the effects of JP-3-110 and MPA on T cell activation.

[2] = Hydrolytic stability of JP-3-110 aqueous solution by HPLC; format: physicochemical; details: aqueous solution (0.4 mg/mL) stored in 4° C. for 1 week
Method: The peak at 2 minutes was denoted as MPA degraded from JP-3-110.
(§2) Quinic acid amide analog TNP was synthesized as described before. See Zeng et al., 2009, Bioorganic & Medicinal Chemistry Letters, 19:5458-5460. JP-3-110 was synthesized by conjugating TNP with MPA and the structure of JP-3-110 was confirmed by 1H NMR. FIG. 1B. […] FIGS. 7A-7D. To improve solubility, the inventors conceived to introduce aqueous solubility enhancing groups such as ionizable groups —CO2H, —SO3H or amino groups, sugars at positions R1, R2 and/or R10 of Formulas II and III. Such introduction would require routine skills. The ester bond of JP-3-110 is susceptible to hydrolytic degradation, releasing TNP and MPA as two single drugs. More than 40% of JP-3-110 in the aqueous solution will be degraded when stored in 4° C. for 1 week (FIGS. 9A-9C).

[3] = Aqueous solubility of JP-3-110 by HPLC (saturated water solution); format: physicochemical
Method: The column was Inertsil ODS-3, 250×4.6 mm, 5 μm. […] From top to bottom, 0.2, 2, 20, 200, 2000 μg/mL of JP-3-110 in acetonitrile (ACN).
as §2

[4] = tested on: PHA-stimulated T cells; assay: T cell activation markers in medium of PHA-stimulated T cells by ELISA; format: cell-based, human; details: 5 μM; for level of IFNγ / level of TNFα: medium of T cells following PHA stimulation; for level of IL-2 / level of IL-2 receptors: medium of T cells, 48 h following PHA stimulation
Method: Briefly, human peripheral blood mononuclear cells PBMCs were isolated from human buffy coat using Ficoll-Paque. T cells ([…]) were isolated from PBMCs using dynabeads for human CD3+ T cells and subjected to PHA (1 μg/mL) stimulation for 24 h alone or with JP-3-110 (5 μM) and MPA (5 μM) for additional 48 h. The PHA-stimulated proliferation of T cells is characterized by a quick drop in the early stage (24 h) and a following fast-proliferative stage. FIGS. 3B and 3C show charts depicting the levels of IL-2, IL-2 receptor, TNFα and IFNγ in the media of T cells at 48 h following PHA stimulation. IL-2 and IL-2 receptor were transient expressed markers for early stage T cell activation while TNFα and IFNγ were stably expressed markers for later-stage T cell activation. Results are presented as the mean±S.D., n=6.
as §1
Mixed lymphocytes reaction was used to determine the immunosuppressive effects of MPA and JP-3-110. T cells were purified using dynabeads from peripheral blood mononuclear cells (PBMCs), which were initially isolated from human buffy coat (FIG. 8A). […] The levels of IL-2, IL-2sRa, TNFα and IFNγ were detected by ELISA to study the effects of JP-3-110 and MPA on T cell activation. IL-2 and IL-2R typically peaked at the first 48 h after PHA stimulation as markers for the early stage T cell activation, while TNFα and IFNγ were constitutively expressed by PHA-stimulated T cells as later-stage markers for T cell activation. […] However, the results might be due to an overlap between the immunosuppressive pathway and the anti-inflammatory pathway of JP-3-110 and MPA.

[5] = tested on: human islets; assay: Dynamic insulin release (perifusion) assay of human islets; format: cell-based; details: co-incubation with drug; for insulin release pattern under stimulatory glucose: basal then stimulatory glucose
Method: Briefly, 50 islets from each group were perifused with basal glucose for 60 min and stimulatory glucose for 30 min and finally with basal glucose until insulin release reversed to the basal level. Samples were collected through an automatic fraction collector and analyzed for insulin content by ELISA.
The insulin secretion from human islets was quantified using a dynamic islet perifusion assay as described before. See Wu et al., 2011, The Journal of Gene Medicine, 13:658-669. Briefly, 50 islets from each group were handpicked and loaded onto a Swinnex 13 chamber (Millipore, Burlington, Mass., USA) and perifused with Krebs-Ringer bicarbonate HEPES buffer of the following composition (in mM): 129 NaCl, 5 NaHCO3, 4.8 KCl, 1.2 KH2PO4, 1.2 MgSO4, 2.5 CaCl2, and 10 HEPES at pH 7.4. The flow rate was maintained at 1 ml/min with a peristaltic pump (Themo Fisher, Waltham, Mass.) and the temperature was maintained at 37° C. with a solution heater (Warner Instruments, Hamden, Conn.). Islets were first perifused with basal glucose for 60 min, stimulatory glucose for 20 min and basal glucose until insulin release reversed to the basal level. The perifusion speed was set to 2 mL/minute and samples were collected once per minute through an automatic fraction collector (Waters, Milford, Mass.) and analyzed for insulin content by ELISA.
A dynamic insulin release assay was used to evaluate the function of human islets. Briefly, […] handpicked human islets were sequentially perfused with basal and stimulatory glucose. The samples were collected using an auto-sampler and subjected to ELISA.

Q: For `CCCCNC(=O)[C@]1(O)C[C@@H](O)[C@@H](O)[C@H](OC(=O)CC/C(C)=C/Cc2c(OC)c(C)c3c(c2OC(C)=O)C(=O)OC3)C1` [JP-3-110, (1R,2R,3R,5S)-5-(butylcarbamoyl)-2,3,5-trihydroxycyclohexyl (E)-6-(4-acetoxy-6-methoxy-7-methyl-3-oxo-1,3-dihydroisobenzofuran-5-yl)-4-methylhex-4-enoate], which “proliferation of T cells” value [1] is on record?
A: equally potent as MPA

Q: And the “JP-3-110 degraded in aqueous solution” value [2]?
A: More than 40%

Q: What about the “solubility class according to USP solubility criteria” value [3] of the same molecule?
A: practically insoluble

Q: And the solubility ([3]; thermodynamic from solid, by HPLC)?
A: 480 µg/mL and 800 µM

Q: And the “level of IFNγ” value [4]?
A: moderate inhibition

Q: What about the “level of TNFα” value [4] of the same molecule?
A: moderate inhibition

Q: And the “level of IL-2” value [4]?
A: did not have any effect

Q: What about the “level of IL-2 receptors” value [4] of the same molecule?
A: did not have any effect

Q: What about the “insulin release pattern under stimulatory glucose” value [5] of the same molecule?
A: clear biphasic insulin release

Q: For `COc1c(C)c2c(c(O)c1C/C=C(\C)CCC(=O)O)C(=O)OC2` [MPA, mycophenolic acid, reference compound], which “proliferation of T cells” value [1] is on record?
A: suppress the proliferation of T cells

Q: What about the “level of IFNγ” value [4] of the same molecule?
A: moderate inhibition

Q: What about the “level of TNFα” value [4] of the same molecule?
A: moderate inhibition

Q: What about the “level of IL-2” value [4] of the same molecule?
A: did not have any effect

Q: And the “level of IL-2 receptors” value [4]?
A: did not have any effect

Q: What about the “total insulin release to stimulatory glucose” value [5] of the same molecule?
A: significantly reduction

Q: And the “insulin release pattern under stimulatory glucose” value [5]?
A: impaired the insulin release from both phases

Source: patent publication US10369133B2, “Immunosuppressive compounds and therapeutics” (UNIVERSITY OF TENNESSEE RESEARCH FOUNDATION, priority 2013, dated 2019)
